# Where no end group is shown, it is not given here.
# Tested on: LNCaP cells
# Assay: Proliferation of LNCaP cells without or with R1881 (MTT)
# Assay type: cell-based
# Conditions: 2% serum without or with 1 nM R1881; 50 µM peptide; day 6; Fig. 3A; averages of three independent experiments; P<0.03 vs Vehicle
# Description: For proliferation, cells were grown in medium containing 2% FBS extracted with dextran-coated charcoal (DCC). 48 hours later, ethanol or 1 nM R1881 was added to the cells followed by peptide treatment. The MTT assay (Sigma) was used as before to determine cell number. For apoptosis, 5000 cells were seeded in 96-well plates and treated with Vehicle (DMSO), Peptide A-8R (25 µM), Etoposide (50 µM) (Sigma) at different time points. The Caspase (3/7) activity was measured using Apo-ONE Homogeneous Caspase-3/7 assay kit (Promega). PARP cleavage was also used to measure apoptosis, and is described below.
# Vehicle or different concentrations of Peptide A-8R or C-8R, as shown, was added to (A) hormone-dependent LNCaP cells grown in 2% serum without or with 1 nM R1881, (C) castration-resistant C81 or CWR-22Rv1 cells, or (E) sGCα1-deficient PC-3 or Cos cells. Cell number was measured after various days of incubation. Data points represent averages of three independent experiments plus standard deviations. Asterisks indicate statistical significance (P<0.03) of Peptide A activity, relative to Vehicle. Western blotting was used to monitor expression of endogenous sGCα1 in (B) C81 and CWR-22Rv1 cells, treated without or with 1 nM R1881, or (E) PC-3 and Cos cells, as compared to LNCaP cells. Note that β-actin was used to control for protein loading.
substance,measurement,value
Ac-TFCKAFPFHIIRRRRRRRR [Peptide A-8R],"cytotoxic activity with or without androgen, LNCaP","same potent cytotoxic activity with or without androgen, causing all cells to perish by day 6 when treated with 50 µM peptide"
